ChEMBL document CHEMBL5634098, “Hydrophobicity modulation via the substituents at positions 2 and 4 of 1,3,5-triazine to enhance therapeutic ability against Alzheimer's disease for potent serotonin 5-HT6R agents” (Eur J Med Chem, 2023)

Columns and labels:
Design in all cases: species or system Membrane
[1] = target: 5-hydroxytryptamine receptor 7 (Homo sapiens, UniProt P34969); experiment: Displacement of [3H]-5-CT from human 5-HT7 receptor expressed in HEK293 cell membranes assessed as inhibition constant incubated for 1 hr by Microbeta plate reader based analysis
Sequence of 5-hydroxytryptamine receptor 7 (P34969 whole entry): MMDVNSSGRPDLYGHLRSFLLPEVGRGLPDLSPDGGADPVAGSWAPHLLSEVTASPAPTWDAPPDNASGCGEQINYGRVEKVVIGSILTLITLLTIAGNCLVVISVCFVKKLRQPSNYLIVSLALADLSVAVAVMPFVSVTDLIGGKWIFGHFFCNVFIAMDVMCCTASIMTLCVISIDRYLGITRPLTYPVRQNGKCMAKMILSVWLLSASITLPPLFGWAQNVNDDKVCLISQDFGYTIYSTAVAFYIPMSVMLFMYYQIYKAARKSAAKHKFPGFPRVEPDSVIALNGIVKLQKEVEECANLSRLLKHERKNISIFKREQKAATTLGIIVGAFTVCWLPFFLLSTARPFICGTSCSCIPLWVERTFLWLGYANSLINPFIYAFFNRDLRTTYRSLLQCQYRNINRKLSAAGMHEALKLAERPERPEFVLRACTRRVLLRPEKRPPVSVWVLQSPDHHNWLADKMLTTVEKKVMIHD

[2] = target: 5-hydroxytryptamine receptor 6 (Homo sapiens, UniProt P50406); experiment: Displacement of [3H]-LSD from human 5-HT6 receptor expressed in HEK293 cell membranes assessed as inhibition constant incubated for 1 hr by Microbeta plate reader based analysis
Sequence of 5-hydroxytryptamine receptor 6 (P50406 whole entry): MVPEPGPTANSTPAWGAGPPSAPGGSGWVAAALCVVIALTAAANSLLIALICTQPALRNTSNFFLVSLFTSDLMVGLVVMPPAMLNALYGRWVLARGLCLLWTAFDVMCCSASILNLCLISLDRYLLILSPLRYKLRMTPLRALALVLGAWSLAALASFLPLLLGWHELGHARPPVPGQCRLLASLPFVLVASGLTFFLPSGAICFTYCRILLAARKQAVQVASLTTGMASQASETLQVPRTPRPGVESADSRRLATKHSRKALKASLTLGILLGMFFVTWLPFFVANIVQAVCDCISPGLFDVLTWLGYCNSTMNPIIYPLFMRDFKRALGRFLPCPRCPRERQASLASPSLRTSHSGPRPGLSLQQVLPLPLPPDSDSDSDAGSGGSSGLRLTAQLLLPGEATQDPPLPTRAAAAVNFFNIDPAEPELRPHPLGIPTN

[3] = target: T1, 5-hydroxytryptamine receptor 1A (Homo sapiens, UniProt P08908); experiment: Displacement of [3H]-8-OH-DPAT from human 5-HT1A receptor expressed in HEK293 cell membranes assessed as inhibition constant incubated for 1 hr by Microbeta plate reader based analysis
T1 sequence (P08908 whole entry): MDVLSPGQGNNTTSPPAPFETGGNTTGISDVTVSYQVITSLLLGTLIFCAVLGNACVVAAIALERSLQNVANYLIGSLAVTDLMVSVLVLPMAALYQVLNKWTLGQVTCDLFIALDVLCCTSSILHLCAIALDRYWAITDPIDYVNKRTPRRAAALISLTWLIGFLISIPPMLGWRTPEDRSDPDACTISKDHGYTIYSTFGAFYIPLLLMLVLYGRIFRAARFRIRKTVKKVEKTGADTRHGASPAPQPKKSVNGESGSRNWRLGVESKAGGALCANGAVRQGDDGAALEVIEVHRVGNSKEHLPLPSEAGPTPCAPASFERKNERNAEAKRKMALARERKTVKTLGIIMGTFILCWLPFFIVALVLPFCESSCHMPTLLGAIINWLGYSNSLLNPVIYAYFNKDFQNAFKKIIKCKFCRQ

[4] = target: 5-hydroxytryptamine receptor 2A (Homo sapiens, UniProt P28223); experiment: Displacement of [3H]-ketanserin from human 5-HT2A receptor expressed in HEK293 cell membranes assessed as inhibition constant incubated for 1 hr by Microbeta plate reader based analysis
Sequence of 5-hydroxytryptamine receptor 2A (P28223 whole entry): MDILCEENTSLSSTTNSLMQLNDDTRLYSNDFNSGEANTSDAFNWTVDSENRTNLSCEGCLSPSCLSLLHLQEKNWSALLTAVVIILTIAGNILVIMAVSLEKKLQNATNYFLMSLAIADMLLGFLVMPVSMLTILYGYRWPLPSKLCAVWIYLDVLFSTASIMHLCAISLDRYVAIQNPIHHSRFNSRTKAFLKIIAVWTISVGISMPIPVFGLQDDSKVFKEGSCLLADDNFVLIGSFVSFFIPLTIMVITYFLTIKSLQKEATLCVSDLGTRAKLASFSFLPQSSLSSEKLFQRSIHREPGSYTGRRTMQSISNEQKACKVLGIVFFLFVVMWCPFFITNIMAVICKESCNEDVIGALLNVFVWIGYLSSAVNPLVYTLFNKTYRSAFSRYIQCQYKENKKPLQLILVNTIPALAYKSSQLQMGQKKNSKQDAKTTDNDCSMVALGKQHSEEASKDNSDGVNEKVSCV

D(2) dopamine receptor = D(2) dopamine receptor (Homo sapiens, UniProt P14416); experiment: Displacement of [3H]-raclopride from human D2 receptor expressed in HEK293 cell membranes assessed as inhibition constant incubated for 1 hr by Microbeta plate reader based analysis
Sequence of D(2) dopamine receptor (P14416 whole entry): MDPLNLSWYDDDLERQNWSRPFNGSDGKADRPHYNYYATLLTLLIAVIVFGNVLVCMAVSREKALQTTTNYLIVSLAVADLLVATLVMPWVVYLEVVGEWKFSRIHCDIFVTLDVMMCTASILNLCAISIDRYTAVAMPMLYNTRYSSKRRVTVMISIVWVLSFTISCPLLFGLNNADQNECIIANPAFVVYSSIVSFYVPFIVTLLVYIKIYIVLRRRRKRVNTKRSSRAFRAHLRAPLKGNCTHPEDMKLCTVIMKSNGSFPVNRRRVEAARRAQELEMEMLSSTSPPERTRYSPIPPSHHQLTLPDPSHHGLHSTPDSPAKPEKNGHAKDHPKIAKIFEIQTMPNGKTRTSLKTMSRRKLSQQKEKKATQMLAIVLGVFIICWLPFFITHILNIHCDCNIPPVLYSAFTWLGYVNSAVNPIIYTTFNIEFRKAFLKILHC

SMILES | Ki [1] | Ki [2] | Ki [3] | Ki [4] | Ki (D(2) dopamine receptor)
CCC(Oc1cccc(Cl)c1Cl)c1nc(Nc2ccccc2)nc(N2CCN(C)CC2)n1 (stereo not given) | 2670 nM | – | 4580 nM | 117 nM | 411 nM
CCC(Oc1cc(Cl)cc(Cl)c1)c1nc(Nc2ccncc2)nc(N2CCN(C)CC2)n1 (stereo not given) | 12600 nM | 66 nM | 4920 nM | 437 nM | 723 nM
CCC(Oc1cc(C(F)(F)F)ccc1C(F)(F)F)c1nc(N)nc(N2CCN(C)CC2)n1 (stereo not given) | 18100 nM | – | 8500 nM | 1540 nM | 820 nM
CC(Oc1cc(C(F)(F)F)ccc1C(F)(F)F)c1nc(N)nc(N2CCN(C)CC2)n1 (stereo not given) | 20000 nM | 35 nM | 5760 nM | 797 nM | 811 nM
CCC(Oc1cc(F)ccc1C(F)(F)F)c1nc(N)nc(N2CCN(C)CC2)n1 (stereo not given) | 7330 nM | 15 nM | 2910 nM | 281 nM | 260 nM
CCC(Oc1cc(Cl)cc(Cl)c1)c1nc(Nc2ccccc2)nc(N2CCN(C)CC2)n1 (stereo not given) | 16200 nM | – | 19200 nM | 1680 nM | 565 nM
CCC(Oc1cccc(F)c1F)c1nc(N)nc(N2CCN(C)CC2)n1 (stereo not given) | 11500 nM | 55 nM | 2650 nM | 3030 nM | 1300 nM
CCC(Oc1cccc(F)c1Cl)c1nc(N)nc(N2CCN(C)CC2)n1 (stereo not given) | 8680 nM | – | 1930 nM | 2240 nM | 3360 nM
CCCCC(Oc1cc(Cl)cc(Cl)c1)c1nc(Nc2ccncc2)nc(N2CCN(C)CC2)n1 (stereo not given) | 5140 nM | 94 nM | 5140 nM | 694 nM | 2080 nM
CCCCC(Oc1cc(Cl)cc(Cl)c1)c1nc(Nc2ccccc2)nc(N2CCN(C)CC2)n1 (stereo not given) | 33600 nM | 21 nM | 144000 nM | 287 nM | 2590 nM

Second part, the molecule after the results:

Ki [1] | Ki [2] | Ki [3] | Ki [4] | Ki (D(2) dopamine receptor) | SMILES
17100 nM | 52 nM | 6070 nM | 1460 nM | 931 nM | CC(Oc1cc(C(F)(F)F)ccc1F)c1nc(N)nc(N2CCN(C)CC2)n1 (stereo not given)
29600 nM | 30 nM | 6980 nM | 629 nM | 408 nM | CC(Oc1cc(F)ccc1C(F)(F)F)c1nc(N)nc(N2CCN(C)CC2)n1 (stereo not given)
4340 nM | 23 nM | 2940 nM | 209 nM | 595 nM | CCC(Oc1cccc(Cl)c1F)c1nc(N)nc(N2CCN(C)CC2)n1 (stereo not given)
24000 nM | 94 nM | 4720 nM | 704 nM | 1350 nM | CC(Oc1cccc(F)c1F)c1nc(N)nc(N2CCN(C)CC2)n1 (stereo not given)
45000 nM | 72 nM | 4750 nM | 819 nM | 1790 nM | CCC(Oc1cc(F)ccc1OC)c1nc(N)nc(N2CCN(C)CC2)n1 (stereo not given)
21700 nM | 56 nM | 3110 nM | 2280 nM | 1020 nM | CC(Oc1cc(F)ccc1F)c1nc(N)nc(N2CCN(C)CC2)n1 (stereo not given)
9740 nM | 31 nM | 2130 nM | 113 nM | 472 nM | CC(Oc1cccc(Cl)c1F)c1nc(N)nc(N2CCN(C)CC2)n1 (stereo not given)
11900 nM | 58 nM | 2020 nM | 625 nM | 416 nM | CC(Oc1cc(Cl)ccc1F)c1nc(N)nc(N2CCN(C)CC2)n1 (stereo not given)
– | 18 nM | 1750 nM | 311 nM | 602 nM | CCC(Oc1cc(F)ccc1Cl)c1nc(N)nc(N2CCN(C)CC2)n1 (stereo not given)
7240 nM | 39 nM | 1540 nM | 2670 nM | 1440 nM | CC(Oc1cc(F)ccc1Cl)c1nc(N)nc(N2CCN(C)CC2)n1 (stereo not given)
108000 nM | 60 nM | 6170 nM | 2400 nM | 2430 nM | COc1ccc(F)cc1OC(C)c1nc(N)nc(N2CCN(C)CC2)n1 (stereo not given)
